Results from ChEMBL document CHEMBL1165848, “Discovery of new cholesteryl ester transfer protein inhibitors via ligand-based pharmacophore modeling and QSAR analysis followed by synthetic exploration” (Eur J Med Chem, 2010).

The compounds below were run against T1, Cholesteryl ester transfer protein (Oryctolagus cuniculus, UniProt P22687) (assay: Inhibition of CETP in rabbit serum after 1 hr by fluorescent cholesteryl esters transfer assay). Details: read-out: IC50.
T1 sequence (P22687 whole entry): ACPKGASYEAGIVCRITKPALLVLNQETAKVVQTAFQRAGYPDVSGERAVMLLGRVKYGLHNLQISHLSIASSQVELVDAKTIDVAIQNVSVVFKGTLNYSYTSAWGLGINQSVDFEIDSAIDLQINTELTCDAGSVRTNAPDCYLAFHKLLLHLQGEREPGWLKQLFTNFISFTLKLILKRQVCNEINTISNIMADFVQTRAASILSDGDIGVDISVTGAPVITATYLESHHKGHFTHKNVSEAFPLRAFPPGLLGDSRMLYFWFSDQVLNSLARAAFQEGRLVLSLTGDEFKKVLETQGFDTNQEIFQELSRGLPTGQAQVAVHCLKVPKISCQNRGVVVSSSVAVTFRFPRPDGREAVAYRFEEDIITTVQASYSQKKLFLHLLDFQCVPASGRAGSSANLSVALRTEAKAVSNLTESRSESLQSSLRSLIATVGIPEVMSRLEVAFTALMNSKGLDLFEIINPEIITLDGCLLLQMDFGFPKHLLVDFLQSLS

Row | Compound | IC50
1 | CCN(CC)c1ccc(Nc2ccc(CC(=O)c3ccccc3)cc2)cc1 | 6.5 µM
2 | O=S(=O)(Nc1ccc(CSc2ccc(Cl)cc2)cc1)c1ccccc1 | 1.9 µM
3 | CCCCCCCCOC(=O)c1ccc2c(c1)Nc1cc3ccccc3cc1N2 | 60.3 µM
4 | COc1ccc(Cl)cc1C(=O)NCCc1ccc(S(=O)(=O)NC(=O)NC2CCCCC2)cc1 [GLYBURIDE] | 239 µM

These compounds were tested against T2, Cholesteryl ester transfer protein (Oryctolagus cuniculus) (UniProt P22687) (assay: Inhibition of CETP in rabbit serum at 10 uM after 1 hr by fluorescent cholesteryl esters transfer assay). Details: not given.
T2 sequence (whole entry): T1 sequence (P22687 whole entry)

Row | Compound | inhibition
5 | CCN(CC)c1ccc(Nc2ccc(CC(=O)c3ccccc3)cc2)cc1 | 52.5%
6 | O=S(=O)(Nc1ccc(CSc2ccc(Cl)cc2)cc1)c1ccccc1 | 82.5%
7 | CCCCCCCCOC(=O)c1ccc2c(c1)Nc1cc3ccccc3cc1N2 | 33%
8 | CC(C)(C)c1ccc(C(O)CCCN2CCC(C(O)(c3ccccc3)c3ccccc3)CC2)cc1 (stereo not given) | 0%
9 | CCN(CC)CCC(=O)c1ccc(Nc2ccnc3cc(Cl)ccc23)cc1 | 20.3%
10 | Cc1ccc(Nc2ccc(Nc3ccc(C)cc3)c3c2C(=O)c2cc(Cl)c(Cl)cc2C3=O)cc1 | 20.8%
11 | CCCCOc1ccc2nccc(N/N=C/c3ccc(OC)c4ccccc34)c2c1 | 25.4%
12 | Cc1cc[n+](CC(=O)CCc2ccc(C(=O)C[n+]3ccc(C)cc3)cc2)cc1 | 6%
13 | CCOc1ccc(/N=C/c2ccc(O)c(OC)c2)c(O)c1 | 25.5%
14 | O=C(Nc1ccc(Br)cc1)N1CCN(C(=O)Nc2ccc(Br)cc2)CC1 | 0%
15 | OC1=C2Nc3ccc(Cl)cc3N=C2OC1c1c[nH]c2ccc(COc3ccccc3)cc12 (stereo not given) | 9.1%
16 | COc1ccc(/C=N/c2ccc(C(=O)c3ccccc3)cc2)cc1 | 19.9%
17 | O=c1oc2ccccc2c(O)c1C(CC(O)c1ccc(-c2ccc(Br)cc2)cc1)c1ccccc1 (stereo not given) | 0%
18 | Cc1cc2c(cc1C)NC1=C(O)C(c3c[nH]c4ccc(COc5ccccc5)cc34)OC1=N2 (stereo not given) | 0%
19 | Cc1ccc(Nc2ccc(Nc3ccc(C)cc3)c3c2C(=O)c2cccc(O)c2C3=O)cc1 | 14%
20 | CC(C)OC(=O)CCC/C=C\C[C@@H]1[C@@H](/C=C/[C@@H](O)COc2cccc(C(F)(F)F)c2)[C@H](O)C[C@@H]1O | 0%
21 | COc1ccc(CCN2CCC(Nc3nc4ccccc4n3Cc3ccc(F)cc3)CC2)cc1 | 20.8%
22 | CC(C)C[C@H]1C(=O)N2CCC[C@H]2[C@]2(O)O[C@](NC(=O)[C@@H]3C=C4c5cccc6[nH]c(Br)c(c56)C[C@H]4N(C)C3)(C(C)C)C(=O)N12 | 12.3%
23 | C[C@]12CC[C@@H]3c4ccc(O)cc4C[C@@H](CCCCCCCCC[S+]([O-])CCCC(F)(F)C(F)(F)F)[C@H]3[C@@H]1CC[C@@H]2O (stereo not given in full) | 5.7%

Row | Compound | inhibition
24 | COc1ccc(C(=O)c2ccc(/N=C/c3cccc(C(F)(F)F)c3)cc2)c(OC)c1 | 14.9%
25 | O=C(c1ccccc1)c1ccccc1NCC(O)COc1ccc(Cl)cc1 (stereo not given) | 0%
26 | COc1ccc(C(=O)c2ccc(/N=C/c3ccc(C(F)(F)F)cc3)cc2)c(OC)c1 | 15.4%
27 | CCCNCC(O)COc1ccccc1C(=O)CCc1ccccc1 (stereo not given) | 0%
28 | COc1ccc(/N=C/c2ccc(N(CCC#N)S(=O)(=O)c3ccccc3)cc2)cc1 | 0%
29 | COc1ccc(OCCCn2cc(-c3ccc(Cl)c(Cl)c3)c(=N)[nH]c2=O)cc1 | 0%
30 | CCSc1nc2ccc(/N=C\c3ccc(NS(=O)(=O)c4ccccc4)cc3O)cc2s1 | 0%
31 | OCc1cc(C(O)CNCCCCCCOCCCCc2ccccc2)ccc1O (stereo not given) | 27.4%
32 | OC(COc1c(Cl)cc(Cl)cc1Cl)COc1c(Cl)cc(Cl)cc1Cl | 0%
33 | CCOc1cc(C2SCC(=O)N2c2ccc(Oc3ccc(Cl)cc3)c(Cl)c2)ccc1O (stereo not given) | 6.7%
34 | Clc1ccc2c(NCCCC/N=C/c3ccccc3)cccc2c1 | 0%
35 | O=C(NC(=O)c1c(F)cccc1F)Nc1ccc(Cl)c(Oc2ncc(C(F)(F)F)cc2Cl)c1 | 0%
36 | O=C(COc1cccc(Cl)c1)Nc1cccc(CN2C(=O)c3ccccc3C2=O)c1 | 0%
37 | O=C(CCCCC(=O)Nc1c(I)cc(I)c(C(=O)O)c1I)Nc1c(I)cc(I)c(C(=O)O)c1I | 15.9%
38 | COc1ccc(Cl)cc1C(=O)NCCc1ccc(S(=O)(=O)NC(=O)NC2CCCCC2)cc1 [GLYBURIDE] | 35%
39 | Cc1ccc(S(=O)(=O)Nc2cccc3c(NS(=O)(=O)c4ccc(C)cc4)cccc23)cc1 | 0%
40 | N=c1[nH]c(=O)n(CCCOc2cccc(Cl)c2)cc1-c1ccc(Cl)c(Cl)c1 | 0%
41 | CC(C)[C@H](Nc1ccc(C(F)(F)F)cc1Cl)C(=O)OC(C#N)c1cccc(Oc2ccccc2)c1 (stereo not given in full) | 0%
42 | COc1ccc2nc3cc(Cl)ccc3c(Nc3ccc(C(O)CCn4cccc4)cc3)c2c1 (stereo not given) | 13.4%

Row | Compound | inhibition
43 | O=C(c1ccc(-c2ccccc2)cc1)c1cccc(/N=C/c2cccc(C(F)(F)F)c2)c1 | 33.8%
44 | C=CCc1cccc(/C=N/c2ccccc2NS(=O)(=O)c2ccc(C)cc2)c1O | 22.6%
45 | CCN(CC)Cc1cc(Nc2ccnc3cc(Cl)ccc23)ccc1O | 18.6%
46 | Cc1cc(Cl)c(Cl)cc1NC(=O)c1cccc(C(=O)Nc2cc(Cl)c(Cl)cc2C)c1 | 0%
47 | CCCCOc1ccc(NC(=N)Nc2ccc(Cl)cc2)cc1 | 0%
48 | COc1ccc(C(=O)c2ccc(/N=C/c3ccc(C(C)(C)C)cc3)cc2)c(OC)c1 | 24.9%
49 | COc1cccc(/C=N/c2ccc(C(=O)c3ccc(OC)cc3OC)cc2)c1 | 23.7%
50 | COc1ccc(C(=O)c2cccc(/N=C/c3ccccc3)c2)cc1 | 12.6%
51 | COc1cc(N)c(Cl)cc1C(=O)NC1CCN(CCCOc2ccc(F)cc2)CC1OC (stereo not given) | 10.6%
52 | CC(C)(C(=O)O)c1ccc(C(O)CCCN2CCC(C(O)(c3ccccc3)c3ccccc3)CC2)cc1 (stereo not given) | 0%
53 | Cc1ccc(NC(=O)c2ccc(C(=O)Nc3ccc(C)c(Cl)c3)cc2)cc1Cl | 0%
54 | COc1ccc(/C=N/c2ccc(C(=O)c3ccc(OC)cc3OC)cc2)cc1 | 19.5%
55 | O=C(Nc1ccc2c(c1)CCC2)c1ccc(C(=O)Nc2ccc3c(c2)CCC3)cc1 | 0%
56 | O=C(c1ccccc1)c1cccc(/N=C/c2ccc(C(F)(F)F)cc2)c1 | 26.3%
57 | N=C(Nc1cccc2ccccc12)SCCCSC(=N)Nc1cccc2ccccc12 | 0%
58 | COc1ccc(/C=N/c2cccc(C(=O)c3ccc(OC)cc3)c2)cc1 | 14.8%
59 | CN(CN(C)/N=C\c1ccc(Cl)cc1)/N=C\c1ccc(Cl)cc1 | 0%
60 | O=C(NCCCOc1ccc(Cl)c(Cl)c1)NCCc1ccc(Cl)c(Cl)c1 | 0%
